Test [1] addresses Human cGAS amino acids 155-522 (Homo sapiens (Human), UniProt Q8N884). Put plainly: cGAS biochemical activity assay (ATP remaining, Kinase-Glo Max luminescence).
Test [2] deals with cGAS/STING pathway in THP1 cells. Put plainly: THP1 cell-based cGAS/STING pathway activity assay (IRF-3-linked luciferase reporter). Particulars: Homo sapiens, THP-1. The essentials: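 THP1 cells carrying an IRF-3-driven luciferase reporter were read across a range of compound concentrations, and IC50 values were derived from these concentration responses; the assay upper limit was 100 μM.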

Setting [3] is: human cGAS 155-522, ATP remaining (Kinase-Glo Max), read-out: cGAS IC50.

pIC50: −log10 of the molar value. Read-outs that look alike come from different tables or passages of the source. Bounds are passed on as bounds.

Sequence of Human cGAS amino acids 155-522 (Q8N884 157-522): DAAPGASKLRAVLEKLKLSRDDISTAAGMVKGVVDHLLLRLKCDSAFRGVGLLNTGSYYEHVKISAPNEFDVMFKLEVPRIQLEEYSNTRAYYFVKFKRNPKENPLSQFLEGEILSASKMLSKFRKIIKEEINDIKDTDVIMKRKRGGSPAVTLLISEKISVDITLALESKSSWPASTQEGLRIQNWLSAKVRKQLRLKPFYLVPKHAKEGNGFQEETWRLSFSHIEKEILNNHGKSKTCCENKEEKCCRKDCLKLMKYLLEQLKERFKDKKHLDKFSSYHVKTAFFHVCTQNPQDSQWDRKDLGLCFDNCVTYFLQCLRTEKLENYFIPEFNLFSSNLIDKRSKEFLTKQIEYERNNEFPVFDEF

As to `COc1cccc(NC(=O)Cc2c(C)[nH]c3c(-c4ccccc4)c(C(F)(F)F)nn3c2=O)c1` [Compound B1011, N-(3-methoxyphenyl)-2-(5-methyl-7-oxo-3-phenyl-2-(trifluoromethyl)-4,7-dihydropyrazolo[1,5-a]pyrimidin-6-yl)acetamide], the pIC50 was 3.60 to 4.70 in test [1] (setting [3]) and 4.00 to 4.70 in test [2].

For `Cc1nn2c(=O)c(C(=O)Nc3ccccc3S(C)(=O)=O)c(C)[nH]c2c1-c1ccccc1` [Compound A1106, 2,5-dimethyl-N-(2-(methylsulfonyl)phenyl)-7-oxo-3-phenyl-4,7-dihydropyrazolo[1,5-a]pyrimidine-6-carboxamide], the pIC50 is greater than 4.70 in test [1] (setting [3]) and less than 4.00 in test [2].

Regarding `Cc1[nH]c2c(-c3ccccc3)c(C(F)(F)F)nn2c(=O)c1-c1nnc(N2CCCC2)o1` [Compound D1014, 5-methyl-3-phenyl-6-(5-(pyrrolidin-1-yl)-1,3,4-oxadiazol-2-yl)-2-(trifluoromethyl)pyrazolo[1,5-a]pyrimidin-7(4H)-one], the figures for the pIC50 in test [1] (setting [3]) and in test [2] were greater than 4.70 and less than 4.00, respectively.

For `COc1cc(C(=O)O)cc2oc(-c3c(C)[nH]c4c(-c5ccccc5)c(C(F)(F)F)nn4c3=O)nc12` [Compound C1155, 4-methoxy-2-(5-methyl-7-oxo-3-phenyl-2-(trifluoromethyl)-4,7-dihydropyrazolo[1,5-a]pyrimidin-6-yl)benzo[d]oxazole-6-carboxylic acid], the pIC50 in test [1] (setting [3]) was greater than 4.70; in test [2], 4.00 to 4.70.

`Cc1[nH]c2c(-c3ccccc3)c(C(F)(F)F)nn2c(=O)c1C(=O)NS(=O)(=O)c1ccccc1Cl` [Compound A1127, N-((2-chlorophenyl)sulfonyl)-5-methyl-7-oxo-3-phenyl-2-(trifluoromethyl)-4,7-dihydropyrazolo[1,5-a]pyrimidine-6-carboxamide]: the pIC50 in test [1] (setting [3]) is greater than 4.70; in test [2], 4.00 to 4.70.

For `Cc1[nH]c2c(-c3ccccc3)c(C(F)(F)F)nn2c(=O)c1C(=O)Nc1ccccc1N` [Compound A1006, N-(2-aminophenyl)-5-methyl-7-oxo-3-phenyl-2-(trifluoromethyl)-4,7-dihydropyrazolo[1,5-a]pyrimidine-6-carboxamide], the pIC50 in test [1] (setting [3]) is greater than 4.70; in test [2], less than 4.00.

As to `Cc1[nH]c2c(-c3ccccc3)c(C(F)(F)F)nn2c(=O)c1-c1nn(C(C)C)c(=O)o1` [Compound C1023, 3-isopropyl-5-(5-methyl-7-oxo-3-phenyl-2-(trifluoromethyl)-4,7-dihydropyrazolo[1,5-a]pyrimidin-6-yl)-1,3,4-oxadiazol-2(3H)-one], the pIC50 is greater than 4.70 in test [1] (setting [3]) and less than 4.00 in test [2].

As to `COc1cccc2oc(-c3c(C(=O)Nc4cn[nH]c4)[nH]c4c(-c5ccccc5)c(C(F)(F)F)nn4c3=O)nc12` [Compound C1244, 6-(4-methoxybenzo[d]oxazol-2-yl)-7-oxo-3-phenyl-N-(1H-pyrazol-4-yl)-2-(trifluoromethyl)-4,7-dihydropyrazolo[1,5-a]pyrimidine-5-carboxamide], the pIC50 in test [1] (setting [3]) and in test [2] was greater than 4.70 throughout.

Take `Cc1[nH]c2c(-c3ccccc3)c(C(F)(F)F)nn2c(=O)c1-c1nc2ncccc2o1` [Compound C1030, 5-methyl-6-(oxazolo[4,5-b]pyridin-2-yl)-3-phenyl-2-(trifluoromethyl)pyrazolo[1,5-a]pyrimidin-7(4H)-one]: the pIC50 in test [1] (setting [3]) is greater than 4.70; in test [2], less than 4.00.

`COC(=O)[C@@H]1COC(c2c(C)[nH]c3c(-c4ccccc4)c(C(F)(F)F)nn3c2=O)=N1` [Compound C1187, methyl (S)-2-(5-methyl-7-oxo-3-phenyl-2-(trifluoromethyl)-4,7-dihydropyrazolo[1,5-a]pyrimidin-6-yl)-4,5-dihydrooxazole-4-carboxylate]: the negative-log IC50 (pIC50) in test [1] (setting [3]) is greater than 4.70; in test [2] it was less than 4.00.

Consider `COc1cc(CO)cc2oc(-c3c(C)[nH]c4c(-c5ccccc5)c(C(F)(F)F)nn4c3=O)nc12` [Compound C1166, 6-(6-(hydroxymethyl)-4-methoxybenzo[d]oxazol-2-yl)-5-methyl-3-phenyl-2-(trifluoromethyl)pyrazolo[1,5-a]pyrimidin-7(4H)-one], for which the negative logarithm of the IC50 (pIC50) in test [1] (setting [3]) was greater than 4.70; in test [2] it was 4.00 to 4.70.

In the case of `COc1cccc2nc(-c3c(C)[nH]c4c(-c5ccccc5)c(C(F)(F)F)nn4c3=O)oc12` [Compound C1022, 6-(7-methoxybenzo[d]oxazol-2-yl)-5-methyl-3-phenyl-2-(trifluoromethyl)pyrazolo[1,5-a]pyrimidin-7(4H)-one], the negative logarithm of the IC50 (pIC50) was greater than 4.70 in test [1] (setting [3]) and 4.00 to 4.70 in test [2].

For the compound `Cc1[nH]c2c(-c3ccccc3)c(C(F)(F)F)nn2c(=O)c1-c1nnc(N2CCCC2C)o1` (centres unmarked) [Compound D1022, 5-methyl-6-(5-(2-methylpyrrolidin-1-yl)-1,3,4-oxadiazol-2-yl)-3-phenyl-2-(trifluoromethyl)pyrazolo[1,5-a]pyrimidin-7(4H)-one], the negative-log IC50 (pIC50) in test [1] (setting [3]) is greater than 4.70; in test [2], less than 4.00.

With `CCOC(=O)c1coc(-c2c(C)[nH]c3c(-c4ccccc4)c(C(F)(F)F)nn3c2=O)n1` [Compound C1101, ethyl 2-(5-methyl-7-oxo-3-phenyl-2-(trifluoromethyl)-4,7-dihydropyrazolo[1,5-a]pyrimidin-6-yl)oxazole-4-carboxylate], the pIC50 in test [1] (setting [3]) was greater than 4.70; in test [2], 4.00 to 4.70.

`COc1cccc2oc(-c3c(COCC4CNC(=O)O4)[nH]c4c(-c5ccccc5)c(C#N)nn4c3=O)nc12` (centres unmarked) [Compound C1251, 6-(4-methoxybenzo[d]oxazol-2-yl)-7-oxo-5-(((2-oxooxazolidin-5-yl)methoxy)methyl)-3-phenyl-4,7-dihydropyrazolo[1,5-a]pyrimidine-2-carbonitrile]: the results for the negative logarithm of the IC50 (pIC50) in test [1] (setting [3]) and in test [2] were greater than 4.70 and less than 4.00, respectively.

As for `COc1cccc(S(=O)(=O)NC(=O)c2c(C)[nH]c3c(-c4ccccc4)c(C(F)(F)F)nn3c2=O)c1` [Compound A1125, N-((3-methoxyphenyl)sulfonyl)-5-methyl-7-oxo-3-phenyl-2-(trifluoromethyl)-4,7-dihydropyrazolo[1,5-a]pyrimidine-6-carboxamide], the pIC50 is greater than 4.70 in test [1] (setting [3]) and 4.00 to 4.70 in test [2].

As to `COc1cccc2oc(-c3c(C4=CCC(C(=O)O)CC4)[nH]c4c(-c5ccccc5)c(C(F)(F)F)nn4c3=O)nc12` (centres unmarked) [Compound C1234, 4-(6-(4-methoxybenzo[d]oxazol-2-yl)-7-oxo-3-phenyl-2-(trifluoromethyl)-4,7-dihydropyrazolo[1,5-a]pyrimidin-5-yl)cyclohex-3-ene-1-carboxylic acid], the pIC50 in test [1] (setting [3]) is greater than 4.70; in test [2], less than 4.00.

`COc1cc(NC(=O)c2c(C)[nH]c3c(-c4ccccc4)c(C(F)(F)F)nn3c2=O)cc(OC)c1` [Compound A1067, N-(3,5-dimethoxyphenyl)-5-methyl-7-oxo-3-phenyl-2-(trifluoromethyl)-4,7-dihydropyrazolo[1,5-a]pyrimidine-6-carboxamide]: the negative-log IC50 (pIC50) was greater than 4.70 in test [1] (setting [3]) and less than 4.00 in test [2].

`Cc1[nH]c2c(-c3ccccc3)c(C(F)(F)F)nn2c(=O)c1-c1nc2c(OC(=O)N(C)C)cccc2o1` [Compound C1088, 2-(5-methyl-7-oxo-3-phenyl-2-(trifluoromethyl)-4,7-dihydropyrazolo[1,5-a]pyrimidin-6-yl)benzo[d]oxazol-4-yl dimethylcarbamate]: the pIC50 in test [1] (cGAS IC50, human cGAS 155-522, ATP remaining (Kinase-Glo Max)) is greater than 4.70; in test [2] it was 4.00 to 4.70.

As for `COc1nc(N)nc2oc(-c3c(C)[nH]c4c(-c5ccccc5)c(C(F)(F)F)nn4c3=O)nc12` [Compound C1174, 6-(5-amino-7-methoxyoxazolo[5,4-d]pyrimidin-2-yl)-5-methyl-3-phenyl-2-(trifluoromethyl)pyrazolo[1,5-a]pyrimidin-7(4H)-one], the negative logarithm of the IC50 (pIC50) in test [1] (setting [3]) was greater than 4.70; in test [2] it was less than 4.00.

For the compound `COc1cccc2oc(-c3c(COCc4cnc[nH]4)[nH]c4c(-c5ccccc5)c(C(F)(F)F)nn4c3=O)nc12` [Compound C1182, 5-(((1H-imidazol-5-yl)methoxy)methyl)-6-(4-methoxybenzo[d]oxazol-2-yl)-3-phenyl-2-(trifluoromethyl)pyrazolo[1,5-a]pyrimidin-7(4H)-one], the negative-log IC50 (pIC50) in test [1] (setting [3]) was greater than 4.70; in test [2] it was less than 4.00.

On to `Cc1[nH]c2c(-c3ccccc3)c(C(F)(F)F)nn2c(=O)c1C(=O)Nc1cccc2c1CCO2` [Compound A1102, N-(2,3-dihydrobenzofuran-4-yl)-5-methyl-7-oxo-3-phenyl-2-(trifluoromethyl)-4,7-dihydropyrazolo[1,5-a]pyrimidine-6-carboxamide], for which the negative logarithm of the IC50 (pIC50) in test [1] (setting [3]) was greater than 4.70; in test [2], less than 4.00.

`Cc1cnc(NC(=O)c2c(C)[nH]c3c(-c4ccccc4)c(C(F)(F)F)nn3c2=O)o1` [Compound A1075, 5-methyl-N-(5-methyloxazol-2-yl)-7-oxo-3-phenyl-2-(trifluoromethyl)-4,7-dihydropyrazolo[1,5-a]pyrimidine-6-carboxamide]: the negative-log IC50 (pIC50) in test [1] (setting [3]) was greater than 4.70; in test [2], 4.00 to 4.70.

In the case of `COc1cccc2sc(-c3c(C)[nH]c4c(-c5ccccc5)c(C(F)(F)F)nn4c3=O)nc12` [Compound C1070, 6-(4-methoxybenzo[d]thiazol-2-yl)-5-methyl-3-phenyl-2-(trifluoromethyl)pyrazolo[1,5-a]pyrimidin-7(4H)-one], the pIC50 in test [1] (setting [3]) and in test [2] was greater than 4.70 throughout.

For `COc1cccc2oc(-c3c(C4CC(C(=O)O)C4)[nH]c4c(-c5ccccc5)c(C(F)(F)F)nn4c3=O)nc12` (centres unmarked) [Compound C1252, 3-(6-(4-methoxybenzo[d]oxazol-2-yl)-7-oxo-3-phenyl-2-(trifluoromethyl)-4,7-dihydropyrazolo[1,5-a]pyrimidin-5-yl)cyclobutane-1-carboxylic acid], the values for the pIC50 in test [1] (setting [3]) and in test [2] were greater than 4.70 and less than 4.00, respectively.

Source of the values: patent US10738056B2 (Aduro BioTech, Inc., priority 2017, dated 2020).
